Data: patent publication US11230530B2, “Human plasma kallikrein inhibitors” (BioCryst Pharmaceuticals, Inc., priority 2014, dated 2022)

Tests used:
human plasma kallikrein = human plasma kallikrein (Homo sapiens (Human), UniProt P03952); test: Plasma kallikrein activity assay (chromogenic substrate S2302); assay type: biochemical; conditions: 2 nM kallikrein, 80 μM S2302, 30° C., pH 7.8; Cheng-Prusoff; reported as ranges
Description: Plasma kallikrein activity assay. The effect of compounds of the invention on human plasma kallikrein activity was determined using the chromogenic substrates (DiaPharma Group, Inc., West Chester, Ohio, USA). In these experiments, 2 nM kallikrein (Enzyme Research Laboratories, South Bend, Ind., USA) was incubated with 80 μM S2302 (H-D-Pro-Phe-Arg-p-nitroaniline) in the absence or presence of increasing concentrations of compounds of the invention in a final volume of 200 μL Tris-HCl buffer (200 mM NaCl; 2.5 mM CaCl2; 50 mM Tris-HCl, pH 7.8).
Data were analyzed using SigmaPlot software (Systat Software, Inc., San Jose, Calif., USA) (Four Parameter Logistic Curve).

[1] = system: patients with hereditary angioedema (HAE); conditions: in vivo; cited from earlier work

Chain of human plasma kallikrein (P03952 whole entry, looked up): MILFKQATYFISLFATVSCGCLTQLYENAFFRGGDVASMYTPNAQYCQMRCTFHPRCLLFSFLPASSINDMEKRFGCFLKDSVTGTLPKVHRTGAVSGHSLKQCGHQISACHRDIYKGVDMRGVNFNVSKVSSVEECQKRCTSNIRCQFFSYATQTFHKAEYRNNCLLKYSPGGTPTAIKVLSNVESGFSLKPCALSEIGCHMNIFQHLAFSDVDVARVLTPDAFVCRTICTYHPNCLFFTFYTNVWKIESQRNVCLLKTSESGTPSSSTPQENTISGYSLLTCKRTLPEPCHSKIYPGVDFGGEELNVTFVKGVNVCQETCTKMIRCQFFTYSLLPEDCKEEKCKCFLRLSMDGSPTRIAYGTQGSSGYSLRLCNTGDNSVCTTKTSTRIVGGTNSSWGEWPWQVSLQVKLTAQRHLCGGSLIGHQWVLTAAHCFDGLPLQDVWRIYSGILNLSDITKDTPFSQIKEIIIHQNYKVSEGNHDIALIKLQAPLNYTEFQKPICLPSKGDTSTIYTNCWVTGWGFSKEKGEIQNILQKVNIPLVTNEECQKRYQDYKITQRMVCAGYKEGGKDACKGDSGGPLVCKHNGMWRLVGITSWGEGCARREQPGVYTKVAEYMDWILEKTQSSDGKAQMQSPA
Chain of human plasma kallikrein (P03952 whole entry partner, looked up): as the sequence (P03952 whole entry, looked up) above

Compound	Ki (human plasma kallikrein) [nM]	treating HAE [1]
Cc1cc(C(=O)Nc2cccc(C(NCC3CC3)c3cc(O)ccc3O)c2)n(-c2cccc(CN)c2)n1 (centres unmarked) [Compound 146g, 1-(3-(Aminomethyl)phenyl)-N-(3-((cyclopropylmethylamino)(2,5-dihydroxyphenyl)methyl)phenyl)-3-methyl-1H-pyrazole-5-carboxamide]	0.1 to 50	–
NC(N)=NCCC[C@@H](N)C(=O)N[C@@H](CCCN=C(N)N)C(=O)N1CCC[C@H]1C(=O)N1C[C@H](O)C[C@H]1C(=O)NCC(=O)N[C@@H](Cc1cccs1)C(=O)N[C@@H](CO)C(=O)N1Cc2ccccc2C[C@@H]1C(=O)N1[C@H](C(=O)N[C@@H](CCCN=C(N)N)C(=O)O)C[C@@H]2CCCC[C@@H]21 [Icatibant]	–	effective
